In US11286247B2, “Acryloyl-containing nuclear transport regulators and uses thereof” (WIGEN BIOMEDICINE TECHNOLOGY (SHANGHAI) CO., LTD., priority 2019, dated 2022):

Columns and labels:
[1] = In vivo pharmacokinetic analysis; conditions: ICR, mouse; mice, 5 mg/kg, oral gavage in 0.5% CMC, plasma
Description: A group of 9 ICR mice received 5 mg/kg of compound in 0.5% CMC by oral gavage. Blood was taken before treatment and at 5 min, 30 min, 1, 2, 4, 8, 12 and 24 h after treatment. 80 μL of whole blood was sampled (n=3 at each time point) via retro-orbital bleeds or cardiac puncture. The blood sample was collected into EDTA tubes and plasma were obtained by centrifugation at 1500-1600 rpm for 10 min at 4° C. After centrifugation, plasma sample was transferred to a new tube and stored at −60 to −90° C. for future analysis. Plasma concentration of (compounds was quantified by a method based on liquid chromatography coupled to tandem mass-spectrometric detections (LC/MS/MS). Noncompartmental pharmacokinetics parameters were calculated.

CRM1 = molecular target: T1, CRM1 (Homo sapiens, UniProt O14980); assay: Rev-GFP nuclear export assay; type: cell-based; conditions: U2OS cells expressing Rev-GFP, 1 hour incubation, nuclear retention of Rev-GFP
T1 construct: The nuclear localization of Rev protein depends on CRM1; endogenous in cells; host or cells: U2OS cells stably or transiently expressing Rev-GFP (reporter cargo)
Description: The Rev protein from HIV contains nuclear export sequence (NES) at its C terminus and nuclear localization sequence (NLS) at its N-terminus. The nuclear localization of Rev protein depends on CRM1. U2OS cells expressing Rev protein fused with GFP (Rev-GFP) were plated in black 384 plates with clear bottom one day prior to treatment. Compounds were serially diluted 2-fold from 40 μM with DMEM in 384 plates, and then incubated with U2OS cells for an hour. Cells were fixed with 3.7% formaldehyde afterwards and nuclei were stained with Hoechst33258. The nuclear retention of Rev-GFP was examined, and IC50 was calculated.

[2] = system: BxPC-3 cells (pancreatic cancer); assay: Cancer cell proliferation assay, BxPC-3; type: cell-based; conditions: Homo sapiens, BXPC-3, 72 h; three days incubation, absorbance 570 nm; read-out: IC50 (μM) BxPC-3
Description: (§1) BxPC-3 cells (pancreatic cancer) and MDA-MB-231 cells (breast cancer cells) were harvested from exponential phase cultures and seeded in 96-well plates at a cell density of 2×10^4 per well. After overnight attachment, compounds including positive controls were applied to cells at five concentrations and incubated for three days. During the last four hours of incubation, 20 μL of 5 mg/mL […] was added followed by the further addition of 100 μL DMSO. The plates were subsequently shook for 10 minutes to dissolve insoluble purple formazan. Absorbance (A) at a wavelength of 570 nm was quantified. Percentage of inhibition was used for the calculation of IC50 based on the bliss method.

[3] = system: MDA-MB-231 cells (breast cancer cells); assay: Cancer cell proliferation assay, MDA-MB-231; type: cell-based; conditions: Homo sapiens, MDA-MB-231, 72 h; three days incubation, absorbance 570 nm; read-out: IC50 (μM) MDA-MB-231
Description: as §1

T1 sequence (O14980 whole entry): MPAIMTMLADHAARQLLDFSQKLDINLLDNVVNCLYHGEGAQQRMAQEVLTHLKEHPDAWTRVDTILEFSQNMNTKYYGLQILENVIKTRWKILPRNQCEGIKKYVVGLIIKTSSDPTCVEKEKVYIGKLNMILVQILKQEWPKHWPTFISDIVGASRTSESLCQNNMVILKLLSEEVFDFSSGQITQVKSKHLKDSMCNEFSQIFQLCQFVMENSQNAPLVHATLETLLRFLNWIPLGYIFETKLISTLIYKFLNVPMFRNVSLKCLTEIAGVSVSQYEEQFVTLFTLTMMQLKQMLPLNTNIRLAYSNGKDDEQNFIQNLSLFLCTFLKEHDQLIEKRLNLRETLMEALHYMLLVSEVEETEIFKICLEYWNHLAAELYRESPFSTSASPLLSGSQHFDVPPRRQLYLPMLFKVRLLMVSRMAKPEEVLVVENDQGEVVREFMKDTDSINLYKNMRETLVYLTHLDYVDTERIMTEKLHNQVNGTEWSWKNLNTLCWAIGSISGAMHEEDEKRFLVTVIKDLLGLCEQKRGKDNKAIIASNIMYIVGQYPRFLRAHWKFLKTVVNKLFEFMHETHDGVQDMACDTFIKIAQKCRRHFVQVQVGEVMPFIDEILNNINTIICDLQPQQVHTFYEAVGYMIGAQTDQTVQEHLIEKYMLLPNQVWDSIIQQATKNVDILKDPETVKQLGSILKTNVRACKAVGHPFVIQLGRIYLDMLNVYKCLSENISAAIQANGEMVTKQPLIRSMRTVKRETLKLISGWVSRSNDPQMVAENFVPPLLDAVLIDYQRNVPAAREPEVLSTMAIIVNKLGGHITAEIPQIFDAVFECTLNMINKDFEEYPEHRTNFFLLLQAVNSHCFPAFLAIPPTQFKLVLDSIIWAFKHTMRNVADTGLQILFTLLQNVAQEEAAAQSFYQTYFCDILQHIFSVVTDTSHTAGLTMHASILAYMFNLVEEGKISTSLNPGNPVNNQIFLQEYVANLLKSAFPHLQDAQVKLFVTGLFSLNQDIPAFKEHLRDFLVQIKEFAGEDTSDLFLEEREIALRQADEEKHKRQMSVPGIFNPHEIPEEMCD

IC50 (CRM1) [nM]	IC50 [2] [µM]	IC50 [3] [µM]	Structure (SMILES)	AUC(0-t) [1] [ng·h/mL]	Cmax [1] [ng/mL]	MRT [1] [h]	Tmax [1] [h]	half-life [1] [h]
< 1000	0.238	0.034	O=C(/C=C\n1cnc(-c2cc(C(F)(F)F)cc(C(F)(F)F)c2)n1)NN1CCCCCC1=O [Compound 4, (Z)-3-(3-(3,5-bis(trifluoromethyl)phenyl)-1H-1,2,4-triazol-1-yl)-N-(2-oxoazepan-1-yl)acrylamide]					
1000 to 10000	0.527	0.519	O=C(/C=C\n1cnc(-c2cc(C(F)(F)F)cc(C(F)(F)F)c2)n1)NN1CC[C@H](O)C1=O [Compound 10, (S,Z)-3-(3-(3,5-bis(trifluoromethyl)phenyl)-1H-1,2,4-triazol-1-yl)-N-(3-hydroxy-2-oxopyrrolidin-1-yl)acrylamide]					
< 1000	0.449	0.382	O=C(/C=C\n1cnc(-c2cc(C(F)(F)F)cc(C(F)(F)F)c2)n1)Nn1ccccc1=O [Compound 56, (Z)-3-(3-(3,5-bis(trifluoromethyl)phenyl)-1H-1,2,4-triazol-1-yl)-N-(2-oxopyridin-1(2H)-yl)acrylamide]					
< 1000	0.168	0.055	CC(C)N1C(=O)CCN1C(=O)/C=C\n1cnc(-c2cc(C(F)(F)F)cc(C(F)(F)F)c2)n1 [Compound 65, (Z)-1-(3-(3-(3,5-bis(trifluoromethyl)phenyl)-1H-1,2,4-triazol-1-yl)acryloyl)-2-isopropylpyrazolidin-3-one]					
< 1000	0.483	0.965	O=C(/C=C\n1cnc(-c2cc(C(F)(F)F)cc(C(F)(F)F)c2)n1)N1CCC(=O)N1Cc1ccccc1 [Compound 67, (Z)-2-benzyl-1-(3-(3-(3,5-bis(trifluoromethyl)phenyl)-1H-1,2,4-triazol-1-yl)acryloyl)pyrazolidin-3-one]					
< 1000	0.259	0.41	O=C(/C=C\n1cnc(-c2cc(C(F)(F)F)cc(C(F)(F)F)c2)n1)NN1CCC=CC1=O [Compound 88, (Z)-3-(3-(3,5-bis(trifluoromethyl)phenyl)-1H-1,2,4-triazol-1-yl)-N-(6-oxo-3,6-dihydropyridin-1(2H)-yl)acrylamide]					
< 1000	0.184	0.277	CC1=CC(=O)N(NC(=O)/C=C\n2cnc(-c3cc(C(F)(F)F)cc(C(F)(F)F)c3)n2)CC1 [Compound 89, (Z)-3-(3-(3,5-bis(trifluoromethyl)phenyl)-1H-1,2,4-triazol-1-yl)-N-(4-methyl-6-oxo-3,6-dihydropyridin-1(2H)-yl)acrylamide]					
< 1000	0.334	0.675	O=C(/C=C\n1cnc(-c2cc(C(F)(F)F)cc(C(F)(F)F)c2)n1)N1CCCN1c1cnccn1 [Compound 96, (Z)-3-(3-(3,5-bis(trifluoromethyl)phenyl)-1H-1,2,4-triazol-1-yl)-1-(2-(pyrazin-2-yl)pyrazolidin-1-yl)prop-2-en-1-one]					

The next lines start with the compound.

Structure (SMILES)	IC50 (CRM1) [nM]	IC50 [2] [µM]	IC50 [3] [µM]	AUC(0-t) [1] [ng·h/mL]	Cmax [1] [ng/mL]	MRT [1] [h]	Tmax [1] [h]	half-life [1] [h]
O=C(/C=C\n1cnc(-c2cc(C(F)(F)F)cc(C(F)(F)F)c2)n1)NN1CCCCC1=O [Compound 3, (Z)-3-(3-(3,5-bis(trifluoromethyl)phenyl)-1H-1,2,4-triazol-1-yl)-N-(2-oxopiperidin-1-yl)acrylamide]				5810	499	7.86	1	3.31
CCC1=C(C)CN(NC(=O)/C=C\n2cnc(-c3cc(C(F)(F)F)cc(C(F)(F)F)c3)n2)C1=O [Compound 6, (Z)-3-(3-(3,5-bis(trifluoromethyl)phenyl)-1H-1,2,4-triazol-1-yl)-N-(3-ethyl-4-methyl-2-oxo-2,5-dihydro-1H-pyrrol-1-yl)acrylamide]	< 1000	0.471	0.487					
CC1CCN(NC(=O)/C=C\n2cnc(-c3cc(C(F)(F)F)cc(C(F)(F)F)c3)n2)C1=O (stereo not drawn) [Compound 9, (Z)-3-(3-(3,5-bis(trifluoromethyl)phenyl)-1H-1,2,4-triazol-1-yl)-N-(3-methyl-2-oxopyrrolidin-1-yl)acrylamide]	< 1000	0.334	0.504					
O=C(/C=C\n1cnc(-c2cc(C(F)(F)F)cc(C(F)(F)F)c2)n1)NN1CC(O)CC1=O (stereo not drawn) [Compound 15, (Z)-3-(3-(3,5-bis(trifluoromethyl)phenyl)-1H-1,2,4-triazol-1-yl)-N-(4-hydroxy-2-oxopyrrolidin-1-yl)acrylamide]		0.352	1.23					
O=C(/C=C\n1cnc(-c2cc(C(F)(F)F)cc(C(F)(F)F)c2)n1)NN1CCC2(CC2)C1=O [Compound 18, (Z)-3-(3-(3,5-bis(trifluoromethyl)phenyl)-1H-1,2,4-triazol-1-yl)-N-(4-oxo-5-azaspiro[2.4]heptan-5-yl)acrylamide]				3100	320	6.17	0.5	3.12
O=C(/C=C\n1cnc(-c2cc(C(F)(F)F)cc(C(F)(F)F)c2)n1)NN1CC2CCCCC2C1=O (stereo not drawn) [Compound 28, (Z)-3-(3-(3,5-bis(trifluoromethyl)phenyl)-1H-1,2,4-triazol-1-yl)-N-(1-oxooctahydro-2H-isoindol-2-yl)acrylamide]	1000 to 10000	0.769	0.24					
O=C(/C=C\n1cnc(-c2cc(C(F)(F)F)cc(C(F)(F)F)c2)n1)NN1C(=O)[C@H]2C=C[C@@H]1C2 [Compound 30, (Z)-3-(3-(3,5-bis(trifluoromethyl)phenyl)-1H-1,2,4-triazol-1-yl)-N-((1S,4R)-3-oxo-2-azabicyclo[2.2.1]hept-5-en-2-yl)acrylamide]	< 1000	0.392	0.515					
O=C(/C=C\n1cnc(-c2cc(C(F)(F)F)cc(C(F)(F)F)c2)n1)NN1C(=O)[C@H]2CC[C@@H]1C2 [Compound 32, (Z)-3-(3-(3,5-bis(trifluoromethyl)phenyl)-1H-1,2,4-triazol-1-yl)-N-((1R,4S)-3-oxo-2-azabicyclo[2.2.1]heptan-2-yl)acrylamide]	< 1000	0.134	0.277					
CCOC1=CC(=O)N(NC(=O)/C=C\n2cnc(-c3cc(C(F)(F)F)cc(C(F)(F)F)c3)n2)C1 [Compound 80, (Z)-3-(3-(3,5-bis(trifluoromethyl)phenyl)-1H-1,2,4-triazol-1-yl)-N-(4-ethoxy-2-oxo-2,5-dihydro-1H-pyrrol-1-yl)acrylamide]	< 1000	0.145	0.266					
[2H]C([2H])([2H])OC1=CC(=O)N(NC(=O)/C=C\n2cnc(-c3cc(C(F)(F)F)cc(C(F)(F)F)c3)n2)C1 [Compound 82, (Z)-3-(3-(3,5-bis(trifluoromethyl)phenyl)-1H-1,2,4-triazol-1-yl)-N-(4-(methoxy-d3)-2-oxo-2,5-dihydro-1H-pyrrol-1-yl)acrylamide]	< 1000	0.016	0.102					
O=C(/C=C\n1cnc(-c2cc(C(F)(F)F)cc(C(F)(F)F)c2)n1)NN1CC(OCC(F)(F)F)=CC1=O [Compound 83, (Z)-3-(3-(3,5-bis(trifluoromethyl)phenyl)-1H-1,2,4-triazol-1-yl)-N-(2-oxo-4-(2,2,2-trifluoroethoxy)-2,5-dihydro-1H-pyrrol-1-yl)acrylamide]	< 1000	0.344	0.214					
